Columns and labels:
[1] = target: Human High specific Activity PARP1 (Homo sapiens (Human), UniProt P09874); experiment: PARP1 in vitro selectivity assay (histone PARylation, luminescence); type: biochemical; settings: read-out: PARP1 Biochem IC50
Description: PARP1 In vitro selectivity assays were conducted as a 10 ul reaction volume in a NUNC Maxisorp 384-well assay plate pre-coated in-house with Histones. 5 ul of Human High specific Activity PARP1 (Trevigen: 4668-100-01) was used at a final reaction concentration of 0.02 units/ml in 1×PARP Buffer (Trevigen: 4671-096-02) with 5 ul of 1×PARP cocktail, which is a mixture of 10×PARP Cocktail (Trevigen: 4671-096-03), 10× Activate DNA (Trevigen: 4671-096-06) and 20×PARP Buffer (as above). The reaction was incubated at room temperature for 60 minutes to allow histones on the coated plate to become PARylated. The wells were then washed with PBS/0.1% Triton X100. PARP1 activity was then detected by measuring the extent of PARylation. Firstly, 10 ul of Streptavidin-HRP (Trevigen: 4800-30-06), diluted 1 in 250 in 1×PARG Assay Buffer (Trevigen: 4680-096-02), was added to each well and incubated at room temperature for 60 minutes. Secondly, following another wash with PBS/0.1% Triton X100, Peroxy Glow Reagents A and B (Trevigen: 4675-096-01 and 4675-096-02) were mixed in equal quantities immediately before use and 100 ul was added to each well. Luminescence signal was then measured immediately.

Human Full Length ARH3 = Human Full Length ARH3 (Homo sapiens (Human), UniProt Q9NX46); experiment: ARH3 in vitro selectivity assay (TR-FRET); type: biochemical; settings: read-out: ARH3 Biochem IC50
Description: ARH3 In vitro selectivity assays were conducted in a total volume of 15 ul in a standard 384 well format. 5 ul of Human Full Length ARH3 (Enzo Life Sciences: ALX-201-292), used at a final reaction concentration of 17.5 nM, was added to 5 ul of Ribosylated PARP substrate (also produced internally by Astra Zeneca) at final reaction concentration of 4.5 nM in assay buffer (50 mM Tris pH7.4, 0.1 mg/ml BSA, 3 mM EDTA, 0.4 mM EGTA, 1 mM DTT, 0.01% Tween 20, 50 mM KCl). The reaction was incubated at room temperature for 30 minutes and then 5 ul detection reagent was added. Detection Reagent consists of 42 nM MAb Anti-6HIS XL665 (CisBio: 61HISXLB) and 2.25 nM Streptavidin Europium Cryptate (CisBio: 610SAKLB), both at 3× working stock concentrations (final concentrations of 14 nM and 0.75 nM respectively), in a detection buffer of 50 mM Tris pH7.4, BSA at 0.1 mg/ml and KF at 100 mM. Following incubation at room temperature for 60 minutes in the dark, TR-FRET signal was measured at Ex 340 and Em 665 and Em 620. A ratio was calculated as Em665/EM620×104 for each well and used to calculate percent inhibition for test compounds.

PARG in HeLa cell line = PARG in HeLa cell line (Homo sapiens (Human), UniProt Q86W56); experiment: PARG cell assay (nuclear PAR chains after MMS, immunofluorescence); type: cell-based; settings: HeLa cells, MMS 50 μg/mL; read-out: PARG Cell IC50 Geomean
How it was run: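 HeLa cells pre-dosed 1 h with compound (10-point dose response), then MMS 50 μg/mL for a further hour at 37 °C. Fixed cells immunostained with anti-PAR antibody plus Alexa Fluor 488 secondary and Hoechst. High-content imaging quantified nuclear PAR fluorescence intensity; inhibition maintains PAR chains.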

Human Full Length PARG = Human Full Length PARG (Homo sapiens (Human), UniProt Q86W56); experiment: PARG in vitro enzyme assay (TR-FRET); type: biochemical; settings: read-out: PARG_EC50_ENZYME
How it was run: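 Full-length human PARG ([…]) incubated with ribosylated PARP substrate (4.5 nM) for 10 min at room temperature in Tris pH 7.4 buffer with EDTA, EGTA, DTT, KCl. Detection by TR-FRET using anti-6HIS XL665 (14 nM final) and streptavidin europium cryptate (0.75 nM final) after 60 min; Em665/Em620 ratio converted to percent inhibition.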

Chain of Human Full Length ARH3 (Q9NX46 whole entry): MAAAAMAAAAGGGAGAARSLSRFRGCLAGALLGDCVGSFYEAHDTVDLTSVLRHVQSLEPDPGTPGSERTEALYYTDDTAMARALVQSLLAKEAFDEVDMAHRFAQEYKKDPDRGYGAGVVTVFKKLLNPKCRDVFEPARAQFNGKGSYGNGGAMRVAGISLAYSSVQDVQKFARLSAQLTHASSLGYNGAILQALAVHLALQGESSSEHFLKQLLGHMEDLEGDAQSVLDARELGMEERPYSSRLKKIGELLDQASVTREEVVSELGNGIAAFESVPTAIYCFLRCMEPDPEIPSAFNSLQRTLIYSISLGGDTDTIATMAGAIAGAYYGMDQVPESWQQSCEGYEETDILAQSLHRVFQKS
Chain of PARG in HeLa cell line (Q86W56 whole entry): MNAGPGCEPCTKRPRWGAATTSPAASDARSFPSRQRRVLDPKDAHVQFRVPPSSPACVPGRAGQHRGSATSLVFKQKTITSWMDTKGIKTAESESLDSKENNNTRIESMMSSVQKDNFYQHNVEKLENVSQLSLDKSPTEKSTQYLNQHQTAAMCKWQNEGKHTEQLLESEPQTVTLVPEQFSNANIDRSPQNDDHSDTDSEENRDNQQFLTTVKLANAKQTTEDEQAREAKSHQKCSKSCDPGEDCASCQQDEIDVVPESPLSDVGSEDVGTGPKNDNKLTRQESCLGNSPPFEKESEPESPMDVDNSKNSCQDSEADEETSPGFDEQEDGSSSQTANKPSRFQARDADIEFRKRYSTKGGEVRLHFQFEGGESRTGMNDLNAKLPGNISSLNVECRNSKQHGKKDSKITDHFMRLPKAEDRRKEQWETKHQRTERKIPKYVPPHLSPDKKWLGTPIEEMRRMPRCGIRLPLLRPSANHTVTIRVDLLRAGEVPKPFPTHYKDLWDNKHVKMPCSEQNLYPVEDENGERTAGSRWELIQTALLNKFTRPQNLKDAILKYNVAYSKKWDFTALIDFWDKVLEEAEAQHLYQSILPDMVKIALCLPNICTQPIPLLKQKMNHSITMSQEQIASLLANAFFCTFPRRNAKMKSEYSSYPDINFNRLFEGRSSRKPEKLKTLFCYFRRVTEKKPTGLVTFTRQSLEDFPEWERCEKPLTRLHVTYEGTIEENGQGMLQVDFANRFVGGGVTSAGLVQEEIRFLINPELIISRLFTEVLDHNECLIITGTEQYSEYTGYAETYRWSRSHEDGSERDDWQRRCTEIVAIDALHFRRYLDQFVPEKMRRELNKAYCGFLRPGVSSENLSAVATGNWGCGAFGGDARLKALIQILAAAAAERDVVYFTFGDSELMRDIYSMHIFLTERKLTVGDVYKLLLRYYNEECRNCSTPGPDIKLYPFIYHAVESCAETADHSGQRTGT
Chain of Human Full Length PARG (Q86W56 whole entry): as above
Chain of Human High specific Activity PARP1 (P09874 whole entry): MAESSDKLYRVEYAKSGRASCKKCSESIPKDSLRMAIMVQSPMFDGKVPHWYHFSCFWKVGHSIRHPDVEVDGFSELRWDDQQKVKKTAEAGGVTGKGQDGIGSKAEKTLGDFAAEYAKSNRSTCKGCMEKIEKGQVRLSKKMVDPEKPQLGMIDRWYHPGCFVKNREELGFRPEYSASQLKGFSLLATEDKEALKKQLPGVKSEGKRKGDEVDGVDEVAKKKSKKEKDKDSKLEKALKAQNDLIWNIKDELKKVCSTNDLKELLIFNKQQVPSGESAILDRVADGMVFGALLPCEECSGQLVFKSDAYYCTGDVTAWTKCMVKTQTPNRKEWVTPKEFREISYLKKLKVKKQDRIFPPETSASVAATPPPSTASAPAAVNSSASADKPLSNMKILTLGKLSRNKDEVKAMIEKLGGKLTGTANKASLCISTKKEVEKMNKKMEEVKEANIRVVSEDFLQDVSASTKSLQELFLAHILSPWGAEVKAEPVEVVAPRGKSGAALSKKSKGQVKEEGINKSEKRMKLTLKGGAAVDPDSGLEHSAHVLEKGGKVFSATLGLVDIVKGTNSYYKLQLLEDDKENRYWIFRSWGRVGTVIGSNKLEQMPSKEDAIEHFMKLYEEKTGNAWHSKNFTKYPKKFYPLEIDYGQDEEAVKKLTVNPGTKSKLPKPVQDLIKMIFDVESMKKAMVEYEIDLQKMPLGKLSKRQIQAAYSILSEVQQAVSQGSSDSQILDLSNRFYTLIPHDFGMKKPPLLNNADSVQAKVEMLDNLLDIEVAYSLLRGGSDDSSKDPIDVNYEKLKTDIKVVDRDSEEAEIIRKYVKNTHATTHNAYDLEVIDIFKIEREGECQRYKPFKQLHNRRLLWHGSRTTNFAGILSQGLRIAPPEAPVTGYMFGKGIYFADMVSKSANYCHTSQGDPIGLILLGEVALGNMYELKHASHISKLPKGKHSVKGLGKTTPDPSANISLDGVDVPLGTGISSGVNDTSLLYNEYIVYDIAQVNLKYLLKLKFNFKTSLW

Compound	IC50 [1]	IC50 (Human Full Length ARH3)	IC50 (PARG in HeLa cell line)	EC50 (Human Full Length PARG)
Cc1ncc(Cn2c(=O)n(-c3nnc(C)s3)c3cc(S(=O)(=O)NC4(C)CC4)ccc32)s1 [Example 83]	> 150000 nM	> 100000 nM	127 nM	151 nM
Cc1nnc(-n2c(=O)n(Cc3ccc(F)cc3)c3ccc(S(=O)(=O)NC4(C)CC4)cc32)s1 [Example 73]	> 150000 nM	> 100000 nM	107 nM	636 nM
Cc1nc(C)c(Cn2c(=O)n(-c3ncns3)c3cc(S(=O)(=O)NC4(C)CC4)ccc32)s1 [Example 90]	> 150000 nM	> 100000 nM	63 nM	40 nM
Cc1nnc(-n2c(=O)n(Cc3sc(C)nc3C)c3ccc(S(=O)(=O)NC4(C)CC4)cc32)s1 [Example 87]	> 150000 nM	76700 nM	109 nM	68 nM
Cn1c(=O)n(-c2nnc(C(F)F)s2)c2cc(S(=O)(=O)NC3(CF)CC3)c(F)cc21 [Example 174, 3-[5-(difluoromethyl)-1,3,4-thiadiazol-2-yl]-6-fluoro-N-[1-(fluoromethyl)cyclopropyl]-1-methyl-2-oxo-benzimidazole-5-sulfonamide]	> 150000 nM	> 50000 nM	41 nM	91 nM
CCn1c(=O)n(-c2nnc(C(F)F)s2)c2cc(S(=O)(=O)NC3(CF)CC3)c(F)cc21 [Example 208, 3-[5-(Difluoromethyl)-1,3,4-thiadiazol-2-yl]-1-ethyl-6-fluoro-N-[1-(fluoromethyl)cyclopropyl]-2-oxo-benzimidazole-5-sulfonamide]	> 150000 nM	> 150000 nM	29 nM	54 nM
Cc1nnc(-n2cc(Cc3sc(C)nc3C)c3ccc(S(=O)(=O)NC4(C)CC4)cc32)s1 [Example 129, 3-[(2,4-Dimethylthiazol-5-yl)methyl]-N-(1-methylcyclopropyl)-1-(5-methyl-1,3,4-thiadiazol-2-yl)indole-6-sulfonamide]	> 150000 nM	> 16700 nM	251 nM	371 nM
Cc1nnc(-n2c(=O)n(CC3CC3)c3ccc(S(=O)(=O)NC4(C)CC4)cc32)s1 [Example 82]	> 150000 nM	> 100000 nM	193 nM	155 nM
CC1(NS(=O)(=O)c2ccc3c(C(=O)C4CC4)cn(-c4nnc(C(F)F)s4)c3c2)CC1 [Example 145, 3-(Cyclopropanecarbonyl)-1-[5-(difluoromethyl)-1,3,4-thiadiazol-2-yl]-N-(1-methylcyclopropyl)indole-6-sulfonamide]	> 150000 nM	> 150000 nM	46.6 nM	134 nM

Source: patent publication US10508086B2 (CANCER RESEARCH TECHNOLOGY LIMITED, priority 2014, dated 2019)
